Measurements from patent US20250206732A1, “COMPOUNDS AND METHODS FOR THE TARGETED DEGRADATION OF KRAS” (Arvinas Operations, Inc., priority 2022, published 2025).
Values belong to the compound of their own block, whether it stands above or below them.

Target: T1, AsPC-1 HiBiT-KRASG12D (Homo sapiens, UniProt P01116, G12D)
T1 construct: insert the HiBiT tag onto the N-terminus of one or more of the endogenous KRAS alleles; endogenous in cells; host or cells: AsPC-1 (ATCC CRL-1682), CRISPR-Cas9 knock-in clone, one tagged allele
T1 sequence (P01116 1-188 isoform P01116-2 G12D): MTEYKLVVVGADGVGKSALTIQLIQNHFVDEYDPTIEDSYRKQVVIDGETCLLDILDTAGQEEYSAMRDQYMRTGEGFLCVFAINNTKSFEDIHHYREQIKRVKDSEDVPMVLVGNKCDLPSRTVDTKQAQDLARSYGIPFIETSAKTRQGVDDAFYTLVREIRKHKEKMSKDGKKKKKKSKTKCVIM
Assay: HiBiT degradation assay (G12D), AsPC-1 HiBiT-KRASG12D cells
Type: cell-based
Conditions: 24 hours treatment; for Dmax: ASPC1, AsPC-1 HiBiT-KRASG12D cells, maximum degradation observed; for DC50: AsPC-1 HiBiT-KRASG12D cells, HiBiT luminescence
Outline: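 24 h cmpd treatment, 37° C/5% CO2, AsPC-1 HiBiT-KRASG12D clone (CRISPR N-term tag). Alamar blue 1×, 4 h, fluorescence. PBS wash, Nano-Glo HiBiT lytic reagent, 45 min RT, luminescence. Triplicates.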

Structure (SMILES): CCc1cccc2cc(O)cc(-c3ncc4c(N5CC6CCC(C5)N6)nc(OCCN5CCN(CC6CN(c7cc([C@H](C(=O)N8C[C@H](O)C[C@H]8C(=O)N[C@@H](C)c8ccc(-c9scnc9C)cc8)C(C)C)on7)C6)CC5)nc4c3F)c12 [Compound 220, (2S,4R)-1-[(2R)-2-(3-{3-[(4-{2-[(4-{3,8-diazabicyclo[3.2.1]octan-3-yl}-7-(8-ethyl-3-hydroxynaphthalen-1-yl)-8-fluoropyrido[4,3-d]pyrimidin-2-yl)oxy]ethyl}piperazin-1-yl)methyl]azetidin-1-yl}-1,2-oxazol-5-yl)-3-methylbutanoyl]-4-hydroxy-N-[(1S)-1-[4-(4-methyl-1,3-thiazol-5-yl)phenyl]ethyl]pyrrolidine-2-carboxamide]
Dmax: 80 to 100%
DC50: < 600 nM

Structure (SMILES): CCc1cccc2cc(O)cc(-c3ncc4c(N5CC6CCC(C5)N6)nc(OCCN5CCC(CN6CCN(c7cnc(C(=O)N[C@H](C(=O)N8C[C@H](O)C[C@H]8C(=O)N[C@@H](C)c8ccc(-c9scnc9C)cc8)C(C)(C)C)cn7)CC6)CC5)nc4c3F)c12 [Compound 293]
Dmax: 60 to 80%
DC50: < 600 nM

DC50: > 3000 nM
Structure (SMILES): CCc1cccc2cc(O)cc(-c3ncc4c(N5CCCCCC5)nc(OC[C@@]56CCCN5[C@H](COc5cc([C@@H](C(=O)N7C[C@H](O)C[C@H]7C(=O)N[C@@H](C)c7ccc(-c8scnc8C)cc7)C(C)C)on5)CC6)nc4c3F)c12 (single isomer, unassigned) [Compound 339]

Structure (SMILES): CCc1cccc2cc(O)cc(-c3ncc4c(N5CC6CCC(C5)N6)nc(OCCN5CCC(CCC6CN(c7cc([C@H](C(=O)N8C[C@H](O)C[C@H]8C(=O)N[C@@H](C)c8ccc(-c9scnc9C)cc8)C(C)C)on7)C6)CC5)nc4c3F)c12 (single isomer, unassigned) [Compound 250, (2S,4R)-1-[(2R*)-2-(3-{3-[2-(1-{2-[(4-{3,8-diazabicyclo[3.2.1]octan-3-yl}-7-(8-ethyl-3-hydroxynaphthalen-1-yl)-8-fluoropyrido[4,3-d]pyrimidin-2-yl)oxy]ethyl}piperidin-4-yl)ethyl]azetidin-1-yl}-1,2-oxazol-5-yl)-3-methylbutanoyl]-4-hydroxy-N-[(1S)-1-[4-(4-methyl-1,3-thiazol-5-yl)phenyl]ethyl] pyrrolidine-2-carboxamide]
Dmax: 80 to 100%
DC50: < 600 nM

Structure (SMILES): CCc1cccc2cc(O)cc(-c3ncc4c(N5CC6CCC(C5)N6)nc(N5CC(N6CCC(CC7CN(c8cc([C@H](C(=O)N9C[C@H](O)C[C@H]9C(=O)N[C@@H](C)c9ccc(-c%10scnc%10C)cc9)C(C)C)on8)C7)CC6)C5)nc4c3F)c12 [Compound 165]
Dmax: 20 to 60%
DC50: < 600 nM

Structure (SMILES): CCc1cccc2cc(O)cc(-c3ncc4c(N5CC6CCC(C5)N6)nc(OCCC5CCN(CC6CN(c7cc([C@@H](C(=O)N8C[C@H](O)C[C@H]8C(=O)N[C@@H](C)c8ccc(-c9scnc9C)cc8)C(C)C)on7)C6)CC5)nc4c3F)c12 [Compound 219, (2S,4R)-1-[(2S)-2-(3-{3-[(4-{2-[(4-{3,8-diazabicyclo[3.2.1]octan-3-yl}-7-(8-ethyl-3-hydroxynaphthalen-1-yl)-8-fluoropyrido[4,3-d]pyrimidin-2-yl)oxy]ethyl}piperidin-1-yl)methyl]azetidin-1-yl}-1,2-oxazol-5-yl)-3-methylbutanoyl]-4-hydroxy-N-[(1S)-1-[4-(4-methyl-1,3-thiazol-5-yl)phenyl]ethyl]pyrrolidine-2-carboxamide]
Dmax: 20 to 60%
DC50: 1000 to 3000 nM

Structure (SMILES): CCc1cccc2cc(O)cc(-c3ncc4c(N5CC6CCC(C5)N6)nc(OCCN5CCC(F)(CN6CCN(c7cc([C@@H](C(=O)N8C[C@H](O)C[C@H]8C(=O)N[C@@H](C)c8ccc(-c9scnc9C)cc8)C(C)C)on7)C[C@H]6C)CC5)nc4c3F)c12 [Compound 195, (2S,4R)-1-[(2S)-2-{3-[(3R)-4-[(1-{2-[(4-{3,8-diazabicyclo[3.2.1]octan-3-yl}-7-(8-ethyl-3-hydroxynaphthalen-1-yl)-8-fluoropyrido[4,3-d]pyrimidin-2-yl)oxy]ethyl}-4-fluoropiperidin-4-yl)methyl]-3-methylpiperazin-1-yl]-1,2-oxazol-5-yl}-3-methylbutanoyl]-4-hydroxy-N-[(1S)-1-[4-(4-methyl-1,3-thiazol-5-yl)phenyl]ethyl]pyrrolidine-2-carboxamide]
Dmax: < 20%
DC50: 1000 to 3000 nM

DC50: > 3000 nM
Structure (SMILES): CCc1cccc2cc(O)cc(-c3ncc4c(N5CCCCCC5)nc(OC[C@]56CCCN5[C@H](COC(=O)N5CC7(C5)CN(c5cc([C@@H](C(=O)N8C[C@H](O)C[C@H]8C(=O)N[C@@H](C)c8ccc(-c9scnc9C)cc8)C(C)C)on5)C7)CC6)nc4c3F)c12 [Compound 284, [(3S,8R)-8-[[4-(azepan-1-yl)-7-(8-ethyl-3-hydroxy-1-naphthyl)-8-fluoro-pyrido[4,3-d]pyrimidin-2-yl]oxymethyl]-1,2,3,5,6,7-hexahydropyrrolizin-3-yl]methyl 6-[5-[(1S)-1-[(2S,4R)-4-hydroxy-2-[[(1S)-1-[4-(4-methylthiazol-5-yl)phenyl]ethyl]carbamoyl]pyrrolidine-1-carbonyl]-2-methyl-propyl]isoxazol-3-yl]-2,6-diazaspiro[3.3]heptane-2-carboxylate]

Structure (SMILES): CCc1cccc2cc(O)cc(-c3ncc4c(N5CC6CCC(C5)N6)nc(OC5CCN(CC6CCN(c7cc([C@@H](C(=O)N8C[C@H](O)C[C@H]8C(=O)N[C@@H](C)c8ccc(-c9scnc9C)cc8)C(C)C)on7)CC6)CC5)nc4c3F)c12 [Compound 167, (2S,4R)-1-[(2S)-2-{3-[4-({4-[(4-{3,8-diazabicyclo[3.2.1]octan-3-yl}-7-(8-ethyl-3-hydroxynaphthalen-1-yl)-8-fluoropyrido[4,3-d]pyrimidin-2-yl)oxy]piperidin-1-yl}methyl)piperidin-1-yl]-1,2-oxazol-5-yl}-3-methylbutanoyl]-4-hydroxy-N-[(1S)-1-[4-(4-methyl-1,3-thiazol-5-yl)phenyl]ethyl]pyrrolidine-2-carboxamide]
Dmax: 20 to 60%
DC50: 1000 to 3000 nM

Structure (SMILES): Cc1ncsc1-c1ccc([C@H](C)NC(=O)[C@@H]2C[C@@H](O)CN2C(=O)[C@@H](c2cc(N3CCN(C(=O)OC[C@@H]4CC[C@]5(COc6nc(N7CC8CCC(C7)N8)c7cc(Cl)c(-c8cc(O)cc9ccccc89)c(F)c7n6)CCCN45)CC3)no2)C(C)C)cc1 (relative stereo) [Compound 328, [(3S,8S)-8-[[6-chloro-4-(3,8-diazabicyclo[3.2.1]octan-3-yl)-8-fluoro-7-(3-hydroxy-1-naphthyl)quinazolin-2-yl]oxymethyl]-1,2,3,5,6,7-hexahydropyrrolizin-3-yl]methyl 4-[5-[(1R)-1-[(2S,4R)-4-hydroxy-2-[[(1S)-1-[4-(4-methylthiazol-5-yl)phenyl]ethyl]carbamoyl]pyrrolidine-1-carbonyl]-2-methyl-propyl]isoxazol-3-yl]piperazine-1-carboxylate]
Dmax: 80 to 100%
DC50: < 600 nM

Structure (SMILES): CCc1cccc2cc(O)cc(-c3ncc4c(N5CC6CCC(C5)N6)nc(OCCN5CCC(C(C)(C)N6CCN(c7cc([C@H](C(=O)N8C[C@H](O)C[C@H]8C(=O)N[C@@H](C)c8ccc(-c9scnc9C)cc8)C(C)C)on7)CC6)CC5)nc4c3F)c12 (single isomer, unassigned) [Compound 251, (2S,4R)-1-[(2R*)-2-(3-{4-[2-(1-{2-[(4-{3,8-diazabicyclo[3.2.1]octan-3-yl}-7-(8-ethyl-3-hydroxynaphthalen-1-yl)-8-fluoropyrido[4,3-d]pyrimidin-2-yl)oxy]ethyl}piperidin-4-yl)propan-2-yl]piperazin-1-yl}-1,2-oxazol-5-yl)-3-methylbutanoyl]-4-hydroxy-N-[(1S)-1-[4-(4-methyl-1,3-thiazol-5-yl)phenyl]ethyl] pyrrolidine-2-carboxamide]
Dmax: 80 to 100%
DC50: < 600 nM

Structure (SMILES): CCc1cccc2cc(O)cc(-c3ncc4c(N5CC6CCC(C5)N6)nc(OC[C@@]56CCCN5[C@H](COC(=O)N5CC7(C5)CN(c5cc([C@@H](C(=O)N8C[C@H](O)C[C@H]8C(=O)N[C@@H](C)c8ccc(-c9scnc9C)cc8)C(C)C)on5)C7)CC6)nc4c3F)c12 [Compound 113, [(3S,7aS)-7a-{[(4-{3,8-diazabicyclo[3.2.1]octan-3-yl}-7-(8-ethyl-3-hydroxynaphthalen-1-yl)-8-fluoropyrido[4,3-d]pyrimidin-2-yl)oxy]methyl}-hexahydro-1H-pyrrolizin-3-yl]methyl 6-{5-[(2S)-1-[(2S,4R)-4-hydroxy-2-{[(1S)-1-[4-(4-methyl-1,3-thiazol-5-yl)phenyl]ethyl]carbamoyl}pyrrolidin-1-yl]-3-methyl-1-oxobutan-2-yl]-1,2-oxazol-3-yl}-2,6-diazaspiro[3.3]heptane-2-carboxylate]
Dmax: 20 to 60%
DC50: < 600 nM

Structure (SMILES): CCc1cccc2cc(O)cc(-c3ncc4c(N5CC6CCC(C5)N6)nc(OC[C@]56CCCN5[C@H](COC(=O)N5CCN(c7cc([C@H](C(=O)N8C[C@H](O)C[C@H]8C(=O)N[C@@H](C)c8ccc(-c9scnc9C)cc8)C(C)C)on7)C[C@@H]5C)CC6)nc4c3F)c12 [Compound 132, [(3S,7aR)-7a-{[(4-{3,8-diazabicyclo[3.2.1]octan-3-yl}-7-(8-ethyl-3-hydroxynaphthalen-1-yl)-8-fluoropyrido[4,3-d]pyrimidin-2-yl)oxy]methyl}-hexahydro-1H-pyrrolizin-3-yl]methyl (2S)-4-{5-[(2R)-1-[(2S,4R)-4-hydroxy-2-{[(1S)-1-[4-(4-methyl-1,3-thiazol-5-yl)phenyl]ethyl]carbamoyl}pyrrolidin-1-yl]-3-methyl-1-oxobutan-2-yl]-1,2-oxazol-3-yl}-2-methylpiperazine-1-carboxylate]
Dmax: 80 to 100%
DC50: < 600 nM
